Marks after values point to notes of the source that are not given here.

The data set has as its system adriamycin-induced myocardial injury model in rat. Nature of the data set: Protective effects on adriamycin-induced myocardial injury model in rat. Format: in vivo, Wistar rats. The text has this:
Coenzyme Q10 can reduce the cardiotoxicity induced by adriamycin. In this experiment, to adriamycin-induced myocardial injury model in rat was constructed for detecting the effects of coenzyme Q10 nanoemulsion of protecting rats from adriamycin-induced myocardial injury.
40 Wistar rats (250±15 g, F/M=1:1) were randomly divided into five groups (8 animals each group): negative control group, ADM group, ADM+coenzyme Q10 (low dosage) group, ADM+coenzyme Q10 (medium dosage) group and ADM+coenzyme Q10 (high dosage) group. The control group received intraperitoneal injection of physiological saline at 10 mL/kg/d for 9 days. The ADM group received intraperitoneal injection of ADM at 3 mg/kg every other day for 5 times in total (9 days). The ADM+coenzyme Q10 (low, medium and high dosages) groups respectively received tail vein injection of coenzyme Q10 at 1.5, 3.0 and 6.0 mg/kg/d for 9 days, and ADM was administered at 3 mg/kg every other day for 5 times in total (9 days) (10 min after coenzyme Q10 injection, intraperitoneal injection of ADM 3 mg/kg was performed). The rats were sacrificed on the 10th day for histopathological examination and detection for the contents of malonaldehyde and SOD. The histopathological examination was performed by the steps of taking myocardial tissue from the left ventricular, fixing with 10% formaldehyde, slicing according to the conventional methods, and staining with HE.

The mark [1] stands for this setting: ADM group, 3 mg/kg i.p. x5, n = 8.
[2] abbreviates: ADM group: ADM 3 mg/kg i.p. every other day, 5 times, n = 8.

Take `COc1cccc2c1C(=O)c1c(O)c3c(c(O)c1C2=O)C[C@@](O)(C(=O)CO)C[C@@H]3O[C@H]1C[C@H](N)[C@H](O)[C@H](C)O1` [ADM, adriamycin]: where the note is “ADM group (FIG. 2) compared with normal conditions”, the “alterations of rat electrocardiogram” value was “absent P-wave, flattened T-wave, obviously reduced ST-T segment, and decreased QRS waves”. In addition, under setting [1], the “myocardial MDA (nmol/mg prot)” value is recorded as 8.99 ± 1.17^a nmol/mg prot and the “myocardial SOD (U/mg prot)” value is reported as 330.02 ± 15.39^a U/mg prot. Also, under setting [2], the “Pathological classification of myocardial injury: number of rats in grade II” value is on record as 3 and the “Pathological classification of myocardial injury: number of rats in grade III” value is 5. The “myocardial tissue slice (stained with HE)” value (rats received intraperitoneal injection of ADM) is reported as “seriously injured”.
